Reference: patent US9062324B2, “Herbicide tolerant soybean plants and methods for identifying same” (M.S. TECHNOLOGIES LLC, priority 2009, dated 2015)

Assays:
[1] = tested on: soybean plants comprising EE-GM3; experiment: field trials of EE-GM3 in different commercial genetic backgrounds, herbicide challenge; format: in vivo, Glycine max; details: glyphosate and/or isoxaflutole, different treatments, different locations and genetic backgrounds
Source text: The selected event EE-GM3 was introduced in different commercial genetic backgrounds, and results of field trials on different locations were compared. Plants were challenged with glyphosate herbicide and/or isoxaflutole herbicide using different treatments. […] Hundreds of different soybean cultivars containing event EE-GM3 were used in an inheritance study, and herbicides were applied. Selected lines from this trial were later increased in the field and also treated with herbicide. From that trial, 50 selected lines were increased, and these were also herbicide treated.

[2] = tested on: soybean plants comprising EE-GM3 and EE-GM2; experiment: field trial of lines combining EE-GM3 and EE-GM2 sprayed with glyphosate and glufosinate; format: in vivo, Glycine max; details: approximately 40 lines homozygous for tolerance to both herbicides
Source text: A soybean plant containing a combination of elite events EE-GM3 and EE-GM2 has been obtained by conventional crossing between a parent soybean plant comprising EE-GM3 and a parent soybean plant comprising EE-GM2. Progeny plants comprising both events are identified using PCR Identification Protocols for EE-GM2 and EE-GM3 as described herein. Specifically, crosses were made with plants containing EE-GM3 and plants containing EE-GM2. The resulting F1 plants were crossed to 4 conventional lines. The F1s from these crosses were grown in the field and sprayed with glyphosate and glufosinate. F2 seed harvested from F1 plants resistant to both herbicides was then planted. The F2 plants were sprayed with both glyphosate and glufosinate. Nine hundred plants tolerant to both herbicides were harvested and planted in a field trial. Expected Mendelian segregation data for the events was obtained in this trial. Approximately 40 lines homozygous for tolerance to both herbicides were selected for agronomic uniformity for further studies.

Row | SMILES | herbicide tolerance of plants [1] | tolerance of selected homozygous lines to herbicide [2]
1 | CS(=O)(=O)c1cc(C(F)(F)F)ccc1C(=O)c1cnoc1C1CC1 [IFT, (5-cyclopropyl-4-isoxazolyl)[2-(methylsulfonyl)-4-(trifluoromethyl)phenyl]methanone] | good herbicide tolerance | –
2 | CP(=O)(O)CCC(N)C(=O)O (stereo not shown) [glufosinate] | – | good tolerance
3 | O=C(O)CNCP(=O)(O)O [glyphosate] | good herbicide tolerance | good tolerance
